From ChEMBL document CHEMBL6103658, “Designing Macrocyclic Kinase Inhibitors Using Macrocycle Scaffold Hopping with Reinforced Learning (Macro-Hop)” (J Med Chem, 2025)

How the values were obtained:
[1] = target: T1, Platelet-derived growth factor receptor alpha (Homo sapiens, UniProt P16234, D842V); assay: Inhibition of PDGFR-alpha D842V mutant (unknown origin) using Tyr 04 peptide as substrate incubated for 1 hr in presence of ATP by FRET-based Z'-Lyte assay
[2] = target: T1, Platelet-derived growth factor receptor alpha; assay: Inhibition of PDGFR-alpha D842V mutant (unknown origin) expressed in mouse BaF3 cells; assay type: cell-based
[3] = Inhibition of cell viability of HEK293T cells incubated for 72 hrs by CCK8 assay; assay type: toxicity, cell-based, HEK-293T; conditions: human
[4] = cells; conditions: Mus musculus, BaF3, 72 h
[5] = cells; conditions: Mus musculus, BaF3, 72 h; remark: listed apart in the source
[6] = Induction of apoptosis in mouse BaF3 cells expressing PDGFR-alpha D842V mutant (unknown origin) assessed as viable cells at 40 nM incubated for 48 hrs by V-PE/7-AAD staining based flow cytometry (reference value: 92.28 %); assay type: functional; conditions: read-out: Activity
[7] = Induction of apoptosis in mouse BaF3 cells expressing PDGFR-alpha D842V mutant (unknown origin) assessed as early apoptotic cells at 40 nM incubated for 48 hrs by V-PE/7-AAD staining based flow cytometry (reference value: 4.20 %); assay type: functional
[8] = Induction of apoptosis in mouse BaF3 cells expressing PDGFR-alpha D842V mutant (unknown origin) assessed as late apoptotic cells at 40 nM incubated for 48 hrs by V-PE/7-AAD staining based flow cytometry (reference value: 2.77 %); assay type: functional
[9] = Induction of apoptosis in mouse BaF3 cells expressing PDGFR-alpha D842V mutant (unknown origin) assessed as necrotic cells at 40 nM incubated for 48 hrs by V-PE/7-AAD staining based flow cytometry (reference value: 0.75 %); assay type: functional
[10] = Induction of apoptosis in mouse BaF3 cells expressing PDGFR-alpha D842V mutant (unknown origin) assessed as viable cells at 200 nM incubated for 48 hrs by V-PE/7-AAD staining based flow cytometry (reference value: 92.28 %); assay type: functional; conditions: read-out: Activity
[11] = Induction of apoptosis in mouse BaF3 cells expressing PDGFR-alpha D842V mutant (unknown origin) assessed as early apoptotic cells at 200 nM incubated for 48 hrs by V-PE/7-AAD staining based flow cytometry (reference value: 4.20 %); assay type: functional
[12] = Induction of apoptosis in mouse BaF3 cells expressing PDGFR-alpha D842V mutant (unknown origin) assessed as late apoptotic cells at 200 nM incubated for 48 hrs by V-PE/7-AAD staining based flow cytometry (reference value: 2.77 %); assay type: functional
[13] = Induction of apoptosis in mouse BaF3 cells expressing PDGFR-alpha D842V mutant (unknown origin) assessed as necrotic cells at 200 nM incubated for 48 hrs by V-PE/7-AAD staining based flow cytometry (reference value: 0.75 %); assay type: functional
[14] = Induction of apoptosis in mouse BaF3 cells expressing PDGFR-alpha D842V mutant (unknown origin) assessed as viable cells at 1000 nM incubated for 48 hrs by V-PE/7-AAD staining based flow cytometry (reference value: 92.28 %); assay type: functional; conditions: read-out: Activity
[15] = Induction of apoptosis in mouse BaF3 cells expressing PDGFR-alpha D842V mutant (unknown origin) assessed as early apoptotic cells at 1000 nM incubated for 48 hrs by V-PE/7-AAD staining based flow cytometry (reference value: 4.20 %); assay type: functional
[16] = Induction of apoptosis in mouse BaF3 cells expressing PDGFR-alpha D842V mutant (unknown origin) assessed as late apoptotic cells at 1000 nM incubated for 48 hrs by V-PE/7-AAD staining based flow cytometry (reference value: 2.77 %); assay type: functional
[17] = Induction of apoptosis in mouse BaF3 cells expressing PDGFR-alpha D842V mutant (unknown origin) assessed as necrotic cells at 1000 nM incubated for 48 hrs by V-PE/7-AAD staining based flow cytometry (reference value: 0.75 %); assay type: functional
[18] = Induction of cell cycle arrest in mouse BaF3 cells expressing PDGFR-alpha D842V mutant (unknown origin) assessed as accumulation at G0/G1 phase at 40 nM incubated for 24 hrs by PI staining based flow cytometry (reference value: 51.77 %); assay type: functional
[19] = Induction of cell cycle arrest in mouse BaF3 cells expressing PDGFR-alpha D842V mutant (unknown origin) assessed as accumulation at S phase at 40 nM incubated for 24 hrs by PI staining based flow cytometry (reference value: 12.00 %); assay type: functional
[20] = Induction of cell cycle arrest in mouse BaF3 cells expressing PDGFR-alpha D842V mutant (unknown origin) assessed as accumulation at G2/M phase at 40 nM incubated for 24 hrs by PI staining based flow cytometry (reference value: 34.85 %); assay type: functional
[21] = Induction of cell cycle arrest in mouse BaF3 cells expressing PDGFR-alpha D842V mutant (unknown origin) assessed as accumulation at G0/G1 phase at 200 nM incubated for 24 hrs by PI staining based flow cytometry (reference value: 51.77 %); assay type: functional
[22] = Induction of cell cycle arrest in mouse BaF3 cells expressing PDGFR-alpha D842V mutant (unknown origin) assessed as accumulation at S phase at 200 nM incubated for 24 hrs by PI staining based flow cytometry (reference value: 12.00 %); assay type: functional
[23] = Induction of cell cycle arrest in mouse BaF3 cells expressing PDGFR-alpha D842V mutant (unknown origin) assessed as accumulation at G2/M phase at 200 nM incubated for 24 hrs by PI staining based flow cytometry (reference value: 34.85 %); assay type: functional
[24] = Induction of cell cycle arrest in mouse BaF3 cells expressing PDGFR-alpha D842V mutant (unknown origin) assessed as accumulation at G0/G1 phase at 1000 nM incubated for 24 hrs by PI staining based flow cytometry (reference value: 51.77 %); assay type: functional
[25] = Induction of cell cycle arrest in mouse BaF3 cells expressing PDGFR-alpha D842V mutant (unknown origin) assessed as accumulation at S phase at 1000 nM incubated for 24 hrs by PI staining based flow cytometry (reference value: 12.00 %); assay type: functional
[26] = Induction of cell cycle arrest in mouse BaF3 cells expressing PDGFR-alpha D842V mutant (unknown origin) assessed as accumulation at G2/M phase at 1000 nM incubated for 24 hrs by PI staining based flow cytometry (reference value: 34.85 %); assay type: functional
[27] = tested on: BaF3; conditions: Mus musculus, dose <= 1000.0 nM

T1 sequence (P16234 24-1089 D842V limits assumed): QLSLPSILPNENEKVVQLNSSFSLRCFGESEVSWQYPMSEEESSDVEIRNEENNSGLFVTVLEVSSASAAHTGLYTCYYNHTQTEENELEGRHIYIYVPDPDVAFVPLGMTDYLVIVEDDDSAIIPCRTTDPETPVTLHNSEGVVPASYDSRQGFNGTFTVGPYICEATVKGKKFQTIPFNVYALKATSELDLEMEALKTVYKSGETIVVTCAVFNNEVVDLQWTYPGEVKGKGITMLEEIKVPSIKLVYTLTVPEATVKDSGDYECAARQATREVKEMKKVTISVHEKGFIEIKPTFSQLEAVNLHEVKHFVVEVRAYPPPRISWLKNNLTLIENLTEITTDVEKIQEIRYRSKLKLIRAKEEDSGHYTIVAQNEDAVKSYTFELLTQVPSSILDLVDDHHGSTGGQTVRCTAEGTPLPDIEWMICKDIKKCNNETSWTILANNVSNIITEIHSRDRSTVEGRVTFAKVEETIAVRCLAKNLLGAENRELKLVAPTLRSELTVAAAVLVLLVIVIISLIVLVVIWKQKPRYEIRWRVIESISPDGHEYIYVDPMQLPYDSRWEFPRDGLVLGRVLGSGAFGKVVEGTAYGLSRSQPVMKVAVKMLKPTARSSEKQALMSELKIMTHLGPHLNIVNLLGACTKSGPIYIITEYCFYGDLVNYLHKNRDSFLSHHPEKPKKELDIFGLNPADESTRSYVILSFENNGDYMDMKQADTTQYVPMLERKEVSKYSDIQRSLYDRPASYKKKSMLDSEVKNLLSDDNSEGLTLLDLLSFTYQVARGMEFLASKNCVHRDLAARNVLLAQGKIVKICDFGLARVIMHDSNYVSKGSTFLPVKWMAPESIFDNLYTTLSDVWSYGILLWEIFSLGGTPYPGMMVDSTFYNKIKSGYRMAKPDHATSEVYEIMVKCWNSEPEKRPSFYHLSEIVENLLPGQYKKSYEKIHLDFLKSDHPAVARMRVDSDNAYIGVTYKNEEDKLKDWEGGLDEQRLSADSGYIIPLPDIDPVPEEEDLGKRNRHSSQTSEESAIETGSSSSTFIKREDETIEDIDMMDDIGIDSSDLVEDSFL

Clc1cnc2nc1N1CCC(CC1)NCCCOc1ccc3ncn-2c3c1
IC50 [1]: > 10 µM | IC50 [2]: > 1000 nM

CC1(COc2ccc3c(c2)ncn3-c2ccc3cccc(N4CCC(N)CC4)c3n2)COC1 [CRENOLANIB]
IC50 at 72 h [3]: 1680 nM | IC50 [4]: 407 nM | IC50 [5]: 23.7 nM

c1cc2c3nc(ccc3c1)-n1cnc3ccc(cc31)OCCNC1CCN2CC1
viability at 0.04 µM [6]: 94.5% | Activity [7]: 3.2% | Activity [8]: 2.23% | Activity [9]: 0.06% | viability at 0.2 µM [10]: 89.4% | Activity [11]: 8.22% | Activity [12]: 2.27% | Activity [13]: 0.14% | viability at 1 µM [14]: 68.8% | Activity [15]: 24.41% | Activity [16]: 6.67% | Activity [17]: 0.07% | Activity [18]: 54.31% | Activity [19]: 9.94% | Activity [20]: 34.25% | Activity [21]: 60.03% | Activity [22]: 7.5% | Activity [23]: 31.42% | Activity [24]: 65.32% | Activity [25]: 7.21% | Activity [26]: 26.13% | IC50 at 72 h [3]: 1050 nM | inhibition [27]: Not active; Less Pronounced As Compared To Avapritinib | IC50 [4]: 64.1 nM | IC50 [5]: 27.6 nM
